From PubChem BioAssay AID330 (DTP/NCI, 2004)
Several values for one entry are separate records, joined by “and”; a condition that tells them apart may be missing. Identical values can stand only once. Toxic doses and inconclusive results are not listed.

Tested on: P388 leukemia ip, CD2F1 mice, survival T/C
Experiment: NCI In Vivo Anticancer Drug Screen. Data for tumor model P388 Leukemia (intraperitoneal) in CD2F1 (CDF1) mice
Conditions: endpoint: median survival time, higher = longer survival
Method in brief: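 Mice carrying the transplanted tumor received test compound or vehicle. Survival was recorded in each group, and the value is the treated-group measurement divided by that of the vehicle-treated control group.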

[1] = dose: 50.0 mg/kg/injection, schedule: Q01DX009 (ip), vehicle: saline
[2] = dose: 100.0 mg/kg/injection, schedule: Q01DX009 (ip), vehicle: saline
[3] = dose: 50.0 mg/kg/injection, schedule: Q01DX009 (ip), vehicle: saline with Tween-80
[4] = dose: 100.0 mg/kg/injection, schedule: Q01DX009 (ip), vehicle: saline with Tween-80
[5] = dose: 200.0 mg/kg/injection, schedule: Q01DX009 (ip), vehicle: saline with Tween-80
[6] = dose: 25.0 mg/kg/injection, schedule: Q01DX009 (ip), vehicle: Klucel (hydroxypropylcellulose) (HPC)
[7] = dose: 50.0 mg/kg/injection, schedule: Q01DX009 (ip), vehicle: Klucel (hydroxypropylcellulose) (HPC)
[8] = dose: 60.0 mg/kg/injection, schedule: Q01DX005 (ip), vehicle: saline with Tween-80
[9] = dose: 120.0 mg/kg/injection, schedule: Q01DX005 (ip), vehicle: saline with Tween-80
[10] = dose: 240.0 mg/kg/injection, schedule: Q01DX005 (ip), vehicle: saline with Tween-80
[11] = dose: 50.0 mg/kg/injection, schedule: Q01DX005 (ip), vehicle: Klucel (hydroxypropylcellulose) (HPC)
[12] = dose: 100.0 mg/kg/injection, schedule: Q01DX005 (ip), vehicle: Klucel (hydroxypropylcellulose) (HPC)
[13] = dose: 200.0 mg/kg/injection, schedule: Q01DX005 (ip), vehicle: Klucel (hydroxypropylcellulose) (HPC)
[14] = dose: 50.0 mg/kg/injection, schedule: Q01DX005 (ip), vehicle: saline with Tween-80
[15] = dose: 100.0 mg/kg/injection, schedule: Q01DX005 (ip), vehicle: saline with Tween-80
[16] = dose: 200.0 mg/kg/injection, schedule: Q01DX005 (ip), vehicle: saline with Tween-80
[17] = dose: 100.0 mg/kg/injection, schedule: Q01DX009 (ip), vehicle: Klucel (hydroxypropylcellulose) (HPC)
[18] = dose: 100.0 mg/kg/injection, schedule: Q04DX003 (ip), vehicle: saline with Tween-80
[19] = dose: 50.0 mg/kg/injection, schedule: Q01DX009 (ip), vehicle: suspension in saline
[20] = dose: 100.0 mg/kg/injection, schedule: Q01DX009 (ip), vehicle: suspension in saline
[21] = dose: 200.0 mg/kg/injection, schedule: Q04DX003 (ip), vehicle: saline with Tween-80
[22] = dose: 100.0 mg/kg/injection, schedule: Q01DX001 (ip), vehicle: saline with Tween-80
[23] = dose: 200.0 mg/kg/injection, schedule: Q01DX001 (ip), vehicle: saline with Tween-80
[24] = dose: 50.0 mg/kg/injection, schedule: Q01DX001 (ip), vehicle: saline with Tween-80

## O=C1CC(c2ccccc2)NN1 (centres undefined)
[1]
  T/C: 103 % of control
[2]
  T/C: 97 % of control

## CCOc1cccc(Cl)n1
[3]
  T/C: 104 % of control
[4]
  T/C: 100 % of control
[5]
  T/C: 90 % of control

## Cc1cc(C(C#N)c2ccc(Cl)cc2)c(Cl)cc1NC(=O)c1cc(I)cc(I)c1O (centres undefined)
dose: 6.25 mg/kg/injection, schedule: Q01DX005 (ip), vehicle: saline with Tween-80
  T/C: 102 % of control
dose: 12.5 mg/kg/injection, schedule: Q01DX005 (ip), vehicle: saline with Tween-80
  T/C: 94 % of control
dose: 25.0 mg/kg/injection, schedule: Q01DX005 (ip), vehicle: saline with Tween-80
  T/C: 88 % of control

## O=C1CC2(CCCCC2)C(=O)N1c1cc([N+](=O)[O-])ccn1
dose: 12.5 mg/kg/injection, schedule: Q01DX009 (ip), vehicle: Klucel (hydroxypropylcellulose) (HPC)
  T/C: 100 % of control
[6]
  T/C: 101 % of control
[7]
  T/C: 100 % of control and 92 % of control

## c1ccc(Nc2ccc(CN3CCCC3)cc2)cc1
dose: 60.0 mg/kg/injection, schedule: Q01DX005 (ip), vehicle: Klucel (hydroxypropylcellulose) (HPC)
  T/C: 107 % of control
dose: 120.0 mg/kg/injection, schedule: Q01DX005 (ip), vehicle: Klucel (hydroxypropylcellulose) (HPC)
  T/C: 107 % of control
dose: 240.0 mg/kg/injection, schedule: Q01DX005 (ip), vehicle: Klucel (hydroxypropylcellulose) (HPC)
  T/C: 107 % of control

## NNC(=O)c1ccccc1CO
[8]
  T/C: 96 % of control
[9]
  T/C: 102 % of control
[10]
  T/C: 113 % of control

## COc1cc2c(cc1OC)[C@H]1[C@@H](CO)c3ccc4c(c3CN1CC2)OCO4
[11]
  T/C: 109 % of control
[12]
  T/C: 92 % of control
[13]
  T/C: 92 % of control

## CN1C(=O)c2ccccc2N=CN1C(=O)Nc1ccccc1
[14]
  T/C: 94 % of control
[15]
  T/C: 90 % of control
[16]
  T/C: 88 % of control

## Oc1ccc(C2(c3ccc(O)cc3)C3CC4CC(C3)CC2C4)cc1
[7]
  T/C: 104 % of control
[17]
  T/C: 103 % of control
dose: 200.0 mg/kg/injection, schedule: Q01DX009 (ip), vehicle: Klucel (hydroxypropylcellulose) (HPC)
  T/C: 100 % of control

## CCc1nc(N)nc(N)c1-c1ccc(Cl)c(N=NN(C)C)c1
[14]
  T/C: 92 % of control
[15]
  T/C: 97 % of control
[16]
  T/C: 105 % of control

## CSC(CNC(=O)N(CCCl)N=O)n1cc(F)c(=O)[nH]c1=O (centres undefined)
dose: 3.12 mg/kg/injection, schedule: Q04DX003 (ip), vehicle: saline with Tween-80
  T/C: 161 % of control
dose: 6.25 mg/kg/injection, schedule: Q04DX003 (ip), vehicle: saline with Tween-80
  T/C: 158 % of control and 171 % of control
dose: 12.5 mg/kg/injection, schedule: Q04DX003 (ip), vehicle: saline with Tween-80
  T/C: 220 % of control and 264 % of control
dose: 25.0 mg/kg/injection, schedule: Q04DX003 (ip), vehicle: saline with Tween-80
  T/C: 266 % of control and 285 % of control
dose: 50.0 mg/kg/injection, schedule: Q04DX003 (ip), vehicle: saline with Tween-80
  T/C: 275 % of control and 285 % of control
[18]
  T/C: 110 % of control and 123 % of control

## CNNCCCCC(=O)NC(C)C
[6]
  T/C: 97 % of control
[7]
  T/C: 98 % of control
[17]
  T/C: 97 % of control

## C[n+]1c2ccccc2nc2c(N)cc(N)cc21
dose: 31.3 mg/kg/injection, schedule: Q04DX003 (ip), vehicle: saline sonified
  T/C: 104 % of control
dose: 83.0 mg/kg/injection, schedule: Q04DX003 (ip), vehicle: saline with Tween-80
  T/C: 113 % of control
dose: 125.0 mg/kg/injection, schedule: Q04DX003 (ip), vehicle: saline with Tween-80
  T/C: 122 % of control
dose: 188.0 mg/kg/injection, schedule: Q04DX003 (ip), vehicle: saline with Tween-80
  T/C: 100 % of control

## O=[N+]([O-])c1ccc(N2CCN(c3ccccc3)CC2)c2nonc12
[19]
  T/C: 100 % of control
[20]
  T/C: 99 % of control
dose: 200.0 mg/kg/injection, schedule: Q01DX009 (ip), vehicle: suspension in saline
  T/C: 99 % of control and 100 % of control

## CCCCCCCCCCCCCCCCCC(=O)NN
[18]
  T/C: 94 % of control
[21]
  T/C: 87 % of control

## Nc1nc(N)c2cc(CNc3ccc(Cl)c(Cl)c3)ccc2n1
dose: 6.25 mg/kg/injection, schedule: Q01DX009 (ip), vehicle: saline with Tween-80
  T/C: 107 % of control
dose: 12.5 mg/kg/injection, schedule: Q01DX009 (ip), vehicle: saline with Tween-80
  T/C: 110 % of control
dose: 25.0 mg/kg/injection, schedule: Q01DX009 (ip), vehicle: saline with Tween-80
  T/C: 109 % of control

## c1ccc2c[s+]ccc2c1
[19]
  T/C: 90 % of control
[20]
  T/C: 97 % of control

## Cc1[nH]nc2c1NC(=O)OC2C (centres undefined)
[14]
  T/C: 108 % of control
[15]
  T/C: 99 % of control
[16]
  T/C: 101 % of control

## Oc1ccccc1C1=NC(c2ccccc2)NC(c2ccccc2)C1 (centres undefined)
[3]
  T/C: 88 % of control
[4]
  T/C: 93 % of control

## COc1ccc2c(c1)C1(C)C(=O)OC(C2=O)C1C (centres undefined)
dose: 50.0 mg/kg/injection, schedule: Q01DX001 (ip), vehicle: Klucel (hydroxypropylcellulose) (HPC)
  T/C: 104 % of control
dose: 100.0 mg/kg/injection, schedule: Q01DX001 (ip), vehicle: Klucel (hydroxypropylcellulose) (HPC)
  T/C: 99 % of control
dose: 200.0 mg/kg/injection, schedule: Q01DX001 (ip), vehicle: Klucel (hydroxypropylcellulose) (HPC)
  T/C: 114 % of control

## C=C(C)C(=O)NC(Cc1cnc[nH]1)C(=O)O (centres undefined)
[1]
  T/C: 106 % of control
[2]
  T/C: 107 % of control
dose: 200.0 mg/kg/injection, schedule: Q01DX009 (ip), vehicle: saline
  T/C: 107 % of control

## COc1c(OP2(=S)OCC(C)(C)CO2)cnn(C2CCCCC2)c1=O
[14]
  T/C: 89 % of control
[15]
  T/C: 88 % of control

## CC(=N/N=C(N)N)/C(C)=N/N=C(N)N
[14]
  T/C: 104 % of control
[15]
  T/C: 110 % of control

## CCOC1Oc2ccccc2-c2nc(C)c(C#N)cc21 (centres undefined)
[8]
  T/C: 90 % of control
[9]
  T/C: 88 % of control
[10]
  T/C: 90 % of control

## Cc1nn(-c2ccccc2)c(=O)n2c(-n3c(C)nn(-c4ccccc4)c3=O)nnc12
[22]
  T/C: 102 % of control
[23]
  T/C: 105 % of control
dose: 400.0 mg/kg/injection, schedule: Q01DX001 (ip), vehicle: saline with Tween-80
  T/C: 99 % of control

## O=C(O)CCC(=O)c1ccc(Br)cc1
[18]
  T/C: 109 % of control
[21]
  T/C: 104 % of control
dose: 400.0 mg/kg/injection, schedule: Q04DX003 (ip), vehicle: saline with Tween-80
  T/C: 109 % of control

## Cn1c(=O)c2nc(-c3ccc(Cl)cc3)c(-c3ccc(Cl)cc3)nc2n(C)c1=O
[24]
  T/C: 102 % of control
[22]
  T/C: 102 % of control
[23]
  T/C: 110 % of control

## N#CC1(c2ccccc2)C(c2ccccc2)=CC(=C2C(=O)NC(=O)N(c3ccccc3)C2=O)C=C1c1ccccc1 (centres undefined)
[11]
  T/C: 100 % of control
[12]
  T/C: 104 % of control
[13]
  T/C: 98 % of control

## NC(=O)COC1OC(CO)C(O)C(O)C1O (centres undefined)
[11]
  T/C: 97 % of control
[12]
  T/C: 100 % of control
[13]
  T/C: 107 % of control

## Cc1nc2ccccc2c(C(=O)NO)[n+]1[O-]
[3]
  T/C: 104 % of control
[4]
  T/C: 100 % of control
[5]
  T/C: 103 % of control

## N#CC1Oc2ccccc2N1C(=O)c1ccccc1 (centres undefined)
[14]
  T/C: 101 % of control
[15]
  T/C: 102 % of control
[16]
  T/C: 90 % of control

## NC(=S=O)C(N)=S=O
[14]
  T/C: 103 % of control and 110 % of control
[15]
  T/C: 112 % of control and 117 % of control

## NC(=O)C1CCC(c2ccccc2)(c2ccccc2)C1=O (centres undefined)
dose: 100.0 mg/kg/injection, schedule: Q04DX002 (ip), vehicle: saline with Tween-80
  T/C: 99 % of control
dose: 200.0 mg/kg/injection, schedule: Q04DX002 (ip), vehicle: saline with Tween-80
  T/C: 105 % of control
dose: 400.0 mg/kg/injection, schedule: Q04DX002 (ip), vehicle: saline with Tween-80
  T/C: 101 % of control

## COC(=O)CC(=O)C(C(=O)OC)C(CCc1ccccc1)C(C(=O)CC(=O)OC)C(=O)OC (centres undefined)
dose: 25.0 mg/kg/injection, schedule: Q01DX001 (ip), vehicle: saline with Tween-80
  T/C: 97 % of control
[24]
  T/C: 94 % of control
[22]
  T/C: 94 % of control
